Measured values taken from patent US8778871B2 (Takeda Pharmaceutical Company Limited, priority 2004, dated 2014).
Starred links: 1 amine or outer side, 2 acyl side, 3 side chain; linkers in the order of their positions; H or OH if unused. Non-standard residues stand in square brackets, D forms with d. Residues, ends and D or L forms follow the SMILES beside them. X8 = O=C([C@H](Cc1ccc2ccccc2n1)N[*:1])[*:2]; Phe(4-NH2) = Nc1ccc(C[C@H](N)C(=O)O)cc1; 2Nal = N[C@@H](Cc1ccc2ccccc2c1)C(=O)O; Arg(Me) = CNC(=N)NCCC[C@H](N)C(=O)O; Bta = N[C@@H](Cc1csc2ccccc12)C(=O)O; Cha = N[C@@H](CC1CCCCC1)C(=O)O; azaGly = NNC(=O)O

Each compound was assayed against T1, hOT7T175 (Homo sapiens, UniProt Q969F8, L364H) (assay: Intracellular Ca ion level-increasing activity using FLIPR (180 seconds; specific activity to Metastin (1-54))). Conditions: hOT7T175/CHO, relative to Metastin (1-54) = 1.
T1 construct: expressed in transfected cells
T1 sequence (Q969F8 whole entry L364H): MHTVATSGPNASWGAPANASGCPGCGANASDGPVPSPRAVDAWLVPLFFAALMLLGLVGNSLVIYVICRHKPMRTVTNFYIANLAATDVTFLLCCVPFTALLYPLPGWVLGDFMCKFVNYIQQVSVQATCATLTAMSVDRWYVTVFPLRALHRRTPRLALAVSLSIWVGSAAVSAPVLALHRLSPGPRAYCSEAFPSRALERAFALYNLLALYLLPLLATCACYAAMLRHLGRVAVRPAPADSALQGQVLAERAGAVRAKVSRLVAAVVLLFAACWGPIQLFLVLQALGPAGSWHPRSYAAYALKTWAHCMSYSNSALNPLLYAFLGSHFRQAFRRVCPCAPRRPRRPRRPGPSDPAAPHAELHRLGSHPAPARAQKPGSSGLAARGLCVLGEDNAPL
Assay type: cell-based

Compound | Specific Act. (intracellular Ca ion level-increasing activity, specific activity to Metastin (1-54))
CNC(=N)NCCC[C@H](NC(=O)[C@H](CC(C)C)NC(=O)CNC(=O)[C@H](Cc1ccccc1)NC(=O)[C@H](CO)NC(=O)[C@H](CC(N)=O)NC(=O)[C@H](Cc1c[nH]c2ccccc12)NC(=O)[C@@H](CC(N)=O)NC(=O)[C@H](N)Cc1ccc(O)cc1)C(=O)N[C@@H](Cc1ccccc1)C(N)=O [Compound No. 230] | 10
CNC(=N)NCCC[C@H](NC(=O)[C@H](CC(C)C)NC(=O)CNC(=O)[C@H](Cc1ccccc1)NC(=O)[C@H](CO)NC(=O)[C@H](CC(N)=O)NC(=O)[C@H](Cc1c[nH]c2ccccc12)NC(=O)[C@@H](NC(=O)[C@H](N)Cc1ccc(O)cc1)[C@@H](C)O)C(=O)N[C@@H](Cc1ccccc1)C(N)=O [Compound No. 215] (H-[dY]TWNSFGL[Arg(Me)]F-NH2) | 10
CC(C)C[C@H](NC(=O)CNC(=O)[C@H](Cc1ccccc1)NC(=O)[C@H](CO)NC(=O)[C@H](CC(N)=O)NC(=O)[C@H](Cc1c[nH]c2ccccc12)NC(=O)[C@H](CC(N)=O)NC(=O)[C@@H](N)Cc1ccc(O)cc1)C(=O)N[C@@H](CCCNC(=N)N)C(=O)N[C@@H](Cc1ccccc1F)C(N)=O [Compound No. 19] | 2
CNC(=N)NCCC[C@H](NC(=O)[C@H](CC(C)C)NC(=O)CNC(=O)[C@H](Cc1ccccc1)NC(=O)[C@H](CO)NC(=O)[C@H](CC(N)=O)NC(=O)[C@H](Cc1c[nH]c2ccccc12)NC(=O)[C@H](CCC(N)=O)NC(=O)[C@H](N)Cc1ccc(O)cc1)C(=O)N[C@@H](Cc1ccccc1)C(N)=O [Compound No. 214] (H-[dY]QWNSFGL[Arg(Me)]F-NH2) | 10
H-YNWNSFALRF-NH2 [Compound No. 50] | 30
CC(C)C[C@H](NC(=O)CNC(=O)[C@H](Cc1ccccc1)NC(=O)[C@H](CO)NC(=O)[C@H](CC(N)=O)NC(=O)[C@H](Cc1c[nH]c2ccccc12)NC(=O)[C@H](CC(N)=O)NC(=O)[C@@H](N)Cc1ccc(O)cc1)C(=O)N[C@@H](CCCNC(=N)N)C(=O)N[C@@H](Cc1ccc2ccccc2n1)C(N)=O [Compound No. 201] (H-YNWNSFGLR[X8]-NH2) | 1
CNC(=N)NCCC[C@H](NC(=O)[C@H](CC(C)C)NC(=O)CNC(=O)[C@H](Cc1ccccc1)NC(=O)[C@H](CO)NC(=O)[C@H](CC(N)=O)NC(=O)[C@@H](Cc1c[nH]c2ccccc12)NC(=O)[C@H](CC(N)=O)NC(=O)[C@H](N)Cc1ccc(O)cc1)C(=O)N[C@@H](Cc1ccccc1)C(N)=O [Compound No. 142, D-Tyr-Asn-D-Trp-Asn-Ser-Phe-Gly-Leu-Arg(Me)-Phe-NH2] | 2
CNC(=N)NCCC[C@H](NC(=O)[C@H](CC(C)C)NC(=O)NNC(=O)[C@H](Cc1ccccc1)NC(=O)[C@H](CO)NC(=O)[C@H](CC(N)=O)NC(=O)[C@H](Cc1ccc2ccccc2c1)NC(=O)[C@H](N)Cc1ccc(O)cc1)C(=O)N[C@@H](Cc1ccccc1)C(N)=O [Compound No. 255, D-Tyr-Nal(2)-Asn-Ser-Phe-AzaGly-Leu-Arg(Me)-Phe-NH2] (H-[dY][2Nal]NSF[azaGly]L[Arg(Me)]F-NH2) | 1
CC(C)C[C@H](NC(=O)CNC(=O)[C@H](Cc1ccccc1)NC(=O)[C@H](CO)NC(=O)[C@H](CC(N)=O)NC(=O)[C@H](Cc1c[nH]c2ccccc12)NC(=O)[C@H](CC(N)=O)NC(=O)[C@@H](N)Cc1ccc(O)cc1)C(=O)N[C@@H](CCCNC(=N)N)C(=O)N[C@@H](Cc1ccc2ccccc2c1)C(N)=O [Compound No. 110] (H-YNWNSFGLR[2Nal]-NH2) | 20
CC(C)C[C@H](NC(=O)CNC(=O)[C@H](Cc1ccccc1)NC(=O)[C@H](CO)NC(=O)[C@H](CC(N)=O)NC(=O)[C@H](Cc1c[nH]c2ccccc12)NC(=O)[C@H](CC(N)=O)NC(=O)[C@H](Cc1ccc(O)cc1)NC(=O)OCC1c2ccccc2-c2ccccc21)C(=O)N[C@@H](CCCNC(=N)N)C(=O)N[C@@H](Cc1ccccc1)C(N)=O [Compound No. 31] | 2
CNC(=N)NCCC[C@H](NC(=O)[C@H](CC(C)C)NC(=O)[C@H](C)NC(=O)[C@H](Cc1ccccc1)NC(=O)[C@H](CO)NC(=O)[C@H](CC(N)=O)NC(=O)[C@H](Cc1c[nH]c2ccccc12)NC(=O)[C@H](CC(N)=O)NC(=O)[C@H](N)Cc1ccc(O)cc1)C(=O)N[C@@H](Cc1ccccc1)C(N)=O [Compound No. 204] (H-[dY]NWNSFAL[Arg(Me)]F-NH2) | 5
CC(C)C[C@H](NC(=O)CNC(=O)[C@H](Cc1ccccc1)NC(=O)[C@H](CO)NC(=O)[C@H](CC(N)=O)NC(=O)[C@H](Cc1c[nH]c2ccccc12)NC(=O)[C@H](CC(N)=O)NC(=O)[C@H](Cc1ccc(O)cc1)NC(=O)[C@H](CC(N)=O)NC(=O)[C@@H]1CCCN1C(=O)[C@@H](N)CC(C)C)C(=O)N[C@@H](CCCNC(=N)N)C(=O)N[C@@H](Cc1ccccc1)C(N)=O [Compound No. 32, reference compound] | 10
CC(=O)N[C@@H](Cc1ccc(O)cc1)C(=O)N[C@@H](CC(N)=O)C(=O)N[C@@H](Cc1c[nH]c2ccccc12)C(=O)N[C@@H](CC(N)=O)C(=O)N[C@@H](CO)C(=O)N[C@@H](Cc1ccccc1)C(=O)NCC(=O)N[C@@H](CC(C)C)C(=O)N[C@@H](CCCNC(=N)N)C(=O)N[C@@H](Cc1ccccc1)C(N)=O [Compound No. 30] | 10
CNC(=N)NCCC[C@H](NC(=O)[C@H](CC(C)C)NC(=O)NNC(=O)[C@H](Cc1ccccc1)NC(=O)[C@H](CO)NC(=O)[C@H](CC(N)=O)NC(=O)[C@H](Cc1ccc(N)cc1)NC(=O)[C@H](CC(N)=O)NC(=O)[C@H](N)Cc1ccc(O)cc1)C(=O)N[C@@H](Cc1ccccc1)C(N)=O [Compound No. 250, D-Tyr-Asn-Phe(4NH2)-Asn-Ser-Phe-AzaGly-Leu-Arg(Me)-Phe-NH2] (H-[dY]N[Phe(4-NH2)]NSF[azaGly]L[Arg(Me)]F-NH2) | 1
CNC(=N)NCCC[C@H](NC(=O)[C@H](CC(C)C)NC(=O)CNC(=O)[C@H](Cc1ccccc1)NC(=O)[C@H](CO)NC(=O)[C@H](CC(N)=O)NC(=O)[C@@H](Cc1c[nH]c2ccccc12)NC(=O)[C@H](CC(N)=O)NC(=O)[C@@H](N)Cc1ccc(O)cc1)C(=O)N[C@@H](Cc1ccccc1)C(N)=O [Compound No. 143, Tyr-Asn-D-Trp-Asn-Ser-Phe-Gly-Leu-Arg(Me)-Phe-NH2] | 3
CNC(=N)NCCC[C@H](NC(=O)[C@H](CC(C)C)NC(=O)NNC(=O)[C@H](Cc1ccccc1)NC(=O)[C@H](CO)NC(=O)[C@H](CC(N)=O)NC(=O)[C@@H](Cc1c[nH]c2ccccc12)NC(=O)[C@H](CC(N)=O)NC(=O)[C@H](N)Cc1ccc(O)cc1)C(=O)N[C@@H](Cc1ccccc1)C(N)=O [Compound No. 236, D-Tyr-Asn-D-Trp-Asn-Ser-Phe-AzaGly-Leu-Arg(Me)-Phe-NH2] | 2
CNC(=N)NCCC[C@H](NC(=O)[C@H](CC(C)C)NC(=O)CNC(=O)[C@H](Cc1ccccc1)NC(=O)[C@H](CO)NC(=O)[C@H](CC(N)=O)NC(=O)[C@H](CC1CCCCC1)NC(=O)[C@H](CC(N)=O)NC(=O)[C@H](N)Cc1ccc(O)cc1)C(=O)N[C@@H](Cc1ccccc1)C(N)=O [Compound No. 171, D-Tyr-Asn-Cha-Asn-Ser-Phe-Gly-Leu-Arg(Me)-Phe-NH2] (H-[dY]N[Cha]NSFGL[Arg(Me)]F-NH2) | 10
CC(C)C[C@H](NC(=O)CNC(=O)[C@H](Cc1ccccc1)NC(=O)[C@H](CO)NC(=O)[C@H](CC(N)=O)NC(=O)[C@H](Cc1c[nH]c2ccccc12)NC(=O)[C@H](CC(N)=O)NC(=O)[C@@H](N)Cc1ccc(O)cc1)C(=O)N[C@@H](CCCNC(=N)N)C(=O)N[C@@H](CC1CCCCC1)C(N)=O [Compound No. 112] (H-YNWNSFGLR[Cha]-NH2) | 2
CC(C)C[C@H](NC(=O)CNC(=O)[C@H](Cc1ccccc1)NC(=O)[C@H](CO)NC(=O)[C@H](CC(N)=O)NC(=O)[C@H](Cc1c[nH]c2ccccc12)NC(=O)[C@H](CC(N)=O)NC(=O)[C@@H](N)Cc1ccc(O)cc1)C(=O)N[C@@H](CCCNC(=N)N)C(=O)N[C@@H](Cc1ccc(Cl)cc1)C(N)=O [Compound No. 130] | 10
H-DNWNSFGLRF-NH2 [Compound No. 75] | 1
CC[C@H](C)[C@H](NC(=O)[C@H](N)Cc1ccc(O)cc1)C(=O)N[C@@H](CC(N)=O)C(=O)N[C@@H](CO)C(=O)N[C@@H](Cc1ccccc1)C(=O)NCC(=O)N[C@@H](CC(C)C)C(=O)N[C@@H](CCCNC(=N)NC)C(=O)N[C@@H](Cc1ccccc1)C(N)=O [Compound No. 228] (H-[dY]INSFGL[Arg(Me)]F-NH2) | 5
CCNC(=N)NCCC[C@H](NC(=O)[C@H](CC(C)C)NC(=O)CNC(=O)[C@H](Cc1ccccc1)NC(=O)[C@H](CO)NC(=O)[C@H](CC(N)=O)NC(=O)[C@H](Cc1c[nH]c2ccccc12)NC(=O)[C@H](CC(N)=O)NC(=O)[C@@H](N)Cc1ccc(O)cc1)C(=O)N[C@@H](Cc1ccccc1)C(N)=O [Compound No. 220] | 5
CC(C)C[C@H](NC(=O)CNC(=O)[C@H](Cc1ccccc1)NC(=O)[C@H](CO)NC(=O)[C@H](CC(N)=O)NC(=O)[C@H](Cc1c[nH]c2ccccc12)NC(=O)[C@H](CC(N)=O)NC(=O)[C@@H](N)Cc1ccc(O)cc1)C(=O)N[C@@H](CCCNC(=N)N)C(=O)N[C@@H](Cc1csc2ccccc12)C(N)=O [Compound No. 189] (H-YNWNSFGLR[Bta]-NH2) | 10
